The values that follow come from patent US12336981B2, “Compounds and compositions for the inhibition of NAMPT” (Valo Health, Inc., priority 2010, dated 2025).

Like-named read-outs stand apart in the source and are kept apart here.

For one assay, the target named is T1, NAMPT (Homo sapiens, UniProt P43490).
T1 construct: His tag; host or cells: E. coli
In words: Biochemical inhibition assay: NAMPT enzymatic reaction, NMN quantified by mass spectrometry. Particulars: NAMPT enzymatic reaction; read-out: Biochem IC50. Summed up: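 Inhibition of E. coli-expressed His-tagged human NAMPT, measured as NMN formation by mass spectrometry after a 30 min room-temperature reaction containing 1 μM NAM, 100 μM PRPP and 2.5 mM ATP.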

For the next assay, the system named is A2780 cells. As to the kind of experiment: In-vitro cell proliferation assay (SRB), A2780 cells. It is filed as cell-based. Particulars: Homo sapiens, A2780, 72 h, A2780 cells, 72 hours, read-out: A2780 IC50. Summed up: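 Cells were plated overnight at 37° C., 5% CO2, then exposed to serially diluted compounds (0.1% DMSO final) for 72 hours. Viable cells were measured by sulforhodamine B staining after TCA fixation, read at 570 nm; media-only background was subtracted before % inhibition was calculated.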

T1 sequence (P43490 whole entry): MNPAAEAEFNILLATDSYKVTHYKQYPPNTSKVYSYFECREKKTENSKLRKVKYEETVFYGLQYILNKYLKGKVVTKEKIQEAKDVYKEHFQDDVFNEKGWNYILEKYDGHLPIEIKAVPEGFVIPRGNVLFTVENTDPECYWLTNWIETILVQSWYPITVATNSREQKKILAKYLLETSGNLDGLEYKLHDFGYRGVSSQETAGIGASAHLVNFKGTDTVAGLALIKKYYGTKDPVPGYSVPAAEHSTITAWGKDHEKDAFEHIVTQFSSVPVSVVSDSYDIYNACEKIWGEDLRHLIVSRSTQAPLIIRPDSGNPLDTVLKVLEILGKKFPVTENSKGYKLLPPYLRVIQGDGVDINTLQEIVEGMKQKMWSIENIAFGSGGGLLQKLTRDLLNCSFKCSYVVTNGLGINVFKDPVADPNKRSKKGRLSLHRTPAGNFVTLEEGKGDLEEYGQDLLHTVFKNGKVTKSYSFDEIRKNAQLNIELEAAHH

What is called IC50 is the concentration at which inhibition is half-maximal. Consider `O=C(NCc1ccc(S(=O)(=O)CCc2ccccc2)cc1)C1=Nc2ccncc2C1` [N-({4-[(2-phenylethane)sulfonyl]phenyl}methyl)-1H-pyrrolo[3,2-c]pyridine-2-carboxamide], for which the half-inhibitory concentration (IC50) worked out at 11 nM on NAMPT and 22 nM with A2780 cells (SRB assay).
As for `CCCOc1ccccc1NS(=O)(=O)c1ccc(CNC(=O)c2cc3cnccc3[nH]2)cc1` [N-({4-[(2-propoxyphenyl)sulfamoyl]phenyl}methyl)-1H-pyrrolo[3,2-c]pyridine-2-carboxamide], the 50% inhibitory concentration (IC50) on NAMPT is 52 nM; with A2780 cells (SRB assay), 100 nM.
Regarding `O=C(NCc1ccc(S(=O)(=O)c2ccc(Cl)c(Cl)c2)cc1)c1cnc2[nH]ncc2c1` [N-({4-[(3,4-dichlorobenzene)sulfonyl]phenyl}methyl)-1H-pyrazolo[3,4-b]pyridine-5-carboxamide], the results for the IC50 at NAMPT and with A2780 cells (SRB) were 6.7 nM and 5.5 nM, respectively.
Regarding `O=C(NCc1ccc(S(=O)(=O)c2ccc(F)c(F)c2)cc1)c1cc2cnccc2[nH]1` [N-({4-[(3,4-difluorobenzene)sulfonyl]phenyl}methyl)-1H-pyrrolo[3,2-c]pyridine-2-carboxamide], the concentration for half-maximal inhibition (IC50) amounted to 13 nM on NAMPT and 14 nM with A2780 cells (SRB assay).
The like results for `O=C(NCc1ccc(S(=O)(=O)c2ccc(F)c(F)c2)cc1)c1cc2ccncc2s1` [N-({4-[(3,4-difluorobenzene)sulfonyl]phenyl}methyl)thieno[2,3-c]pyridine-2-carboxamide] were, in that order, 9 nM and 8.1 nM.
The like results for `COc1ccc(S(=O)(=O)c2ccc(CNC(=O)c3cc4cnccc4[nH]3)cc2)cc1OC` [N-({4-[(3,4-dimethoxybenzene)sulfonyl]phenyl}methyl)-1H-pyrrolo[3,2-c]pyridine-2-carboxamide] were, in that order, 14 nM and 3 nM.
Regarding `COc1ccc(S(=O)(=O)c2ccc(CNC(=O)c3ccc4nccn4c3)cc2)cc1OC` [N-({4-[(3,4-dimethoxybenzene)sulfonyl]phenyl}methyl)imidazo[1,2-a]pyridine-6-carboxamide], the IC50 was 12 nM at NAMPT and 2.51 nM in the assay on A2780 cells (SRB).
Regarding `COc1ccc(S(=O)(=O)c2ccc(CNC(=O)c3cc4ccncc4s3)cc2)cc1OC` [N-({4-[(3,4-dimethoxybenzene)sulfonyl]phenyl}methyl)thieno[2,3-c]pyridine-2-carboxamide], the IC50 at NAMPT was determined as 3 nM; in the assay with A2780 cells (SRB assay), 0.9 nM.
As to `Cc1ccc(S(=O)(=O)c2ccc(CNC(=O)c3ccc4nccn4c3)cc2)cc1C` [N-({4-[(3,4-dimethylbenzene)sulfonyl]phenyl}methyl)imidazo[1,2-a]pyridine-6-carboxamide], the IC50 came out at 11.1 nM on NAMPT and 2.97 nM with A2780 cells (SRB).
For the compound `Cc1ccc(S(=O)(=O)c2ccc(CNC(=O)c3cc4ccncc4s3)cc2)cc1C` [N-({4-[(3,4-dimethylbenzene)sulfonyl]phenyl}methyl)thieno[2,3-c]pyridine-2-carboxamide], the IC50 on NAMPT was 6 nM; in the assay on A2780 cells (SRB assay), 2.3 nM.
On to `O=C(NCc1ccc(S(=O)(=O)c2cc(Cl)cc(Cl)c2)cc1)c1ccc2nccn2c1` [N-({4-[(3,5-dichlorobenzene)sulfonyl]phenyl}methyl)imidazo[1,2-a]pyridine-6-carboxamide], for which the figures for the concentration for half-maximal inhibition (IC50) at NAMPT and with A2780 cells (SRB) were 5.49 nM and 1.28 nM, respectively.
Turning to `O=C(NCc1ccc(S(=O)(=O)c2cc(Cl)cc(Cl)c2)cc1)c1cc2ccncc2s1` [N-({4-[(3,5-dichlorobenzene)sulfonyl]phenyl}methyl)thieno[2,3-c]pyridine-2-carboxamide], the concentration for half-maximal inhibition (IC50) on NAMPT is 6 nM; in the assay with A2780 cells (SRB assay), 0.7 nM.
In the case of `COc1cc(OC)cc(S(=O)(=O)c2ccc(CNC(=O)c3cnc4nccn4c3)cc2)c1` [N-({4-[(3,5-dimethoxybenzene)sulfonyl]phenyl}methyl)imidazo[1,2-a]pyrimidine-6-carboxamide], the IC50 at NAMPT is 2.4 nM; with A2780 cells (SRB), 1.6 nM.
For the compound `Cc1cc(C)cc(S(=O)(=O)c2ccc(CNC(=O)c3cc4cnccc4[nH]3)cc2)c1` [N-({4-[(3,5-dimethylbenzene)sulfonyl]phenyl}methyl)-1H-pyrrolo[3,2-c]pyridine-2-carboxamide], the half-inhibitory concentration (IC50) at NAMPT was determined as 9 nM; with A2780 cells (SRB assay), 2 nM.
Turning to `Cc1cc(C)cc(S(=O)(=O)c2ccc(CNC(=O)c3ccc4nccn4c3)cc2)c1` [N-({4-[(3,5-dimethylbenzene)sulfonyl]phenyl}methyl)imidazo[1,2-a]pyridine-6-carboxamide], the results for the IC50 on NAMPT and in the assay on A2780 cells (SRB) were 6.76 nM and 3.17 nM, respectively.
`Cc1cc(C)cc(S(=O)(=O)c2ccc(CNC(=O)c3cc4ccncc4s3)cc2)c1` [N-({4-[(3,5-dimethylbenzene)sulfonyl]phenyl}methyl)thieno[2,3-c]pyridine-2-carboxamide]: the figures for the IC50 on NAMPT and with A2780 cells (SRB assay) were 5 nM and 1.8 nM, respectively.
The corresponding values for `CC(=O)c1cccc(S(=O)(=O)c2ccc(CNC(=O)c3cc4cnccc4[nH]3)cc2)c1` [N-({4-[(3-acetylbenzene)sulfonyl]phenyl}methyl)-1H-pyrrolo[3,2-c]pyridine-2-carboxamide] are 12 nM and 6 nM.
Regarding `CC(=O)c1cccc(S(=O)(=O)c2ccc(CNC(=O)c3cc4ccncc4o3)cc2)c1` [N-({4-[(3-acetylbenzene)sulfonyl]phenyl}methyl)furo[2,3-c]pyridine-2-carboxamide], the concentration for half-maximal inhibition (IC50) was determined as 17.6 nM on NAMPT and 8 nM in the assay with A2780 cells (SRB).
The like results for `CC(=O)c1cccc(S(=O)(=O)c2ccc(CNC(=O)c3ccc4nccn4c3)cc2)c1` [N-({4-[(3-acetylbenzene)sulfonyl]phenyl}methyl)imidazo[1,2-a]pyridine-6-carboxamide] were, in that order, 12.5 nM and 6.37 nM.
On to `CC(=O)c1cccc(S(=O)(=O)c2ccc(CNC(=O)c3cc4ccncc4s3)cc2)c1` [N-({4-[(3-acetylbenzene)sulfonyl]phenyl}methyl)thieno[2,3-c]pyridine-2-carboxamide], for which the values for the IC50 on NAMPT and with A2780 cells (SRB assay) were 4 nM and 2.6 nM, respectively.
`CCCCOc1cccc(S(=O)(=O)c2ccc(CNC(=O)c3cnc4[nH]ncc4c3)cc2)c1` [N-({4-[(3-butoxybenzene)sulfonyl]phenyl}methyl)-1H-pyrazolo[3,4-b]pyridine-5-carboxamide]: the half-maximal inhibitory concentration (IC50) on NAMPT is 38.4 nM; in the assay with A2780 cells (SRB), 67.5 nM.
The like results for `CCCCOc1cccc(S(=O)(=O)c2ccc(CNC(=O)c3cc4cnccc4[nH]3)cc2)c1` [N-({4-[(3-butoxybenzene)sulfonyl]phenyl}methyl)-1H-pyrrolo[3,2-c]pyridine-2-carboxamide] were, in that order, 11.5 nM and 21.6 nM.
The corresponding values for `CCCCOc1cccc(S(=O)(=O)c2ccc(CNC(=O)c3cc4ccncc4o3)cc2)c1` [N-({4-[(3-butoxybenzene)sulfonyl]phenyl}methyl)furo[2,3-c]pyridine-2-carboxamide] are 12.3 nM and 69.5 nM.
The like results for `Cc1c(Cl)cccc1S(=O)(=O)c1ccc(CNC(=O)c2cnc3[nH]ncc3c2)cc1` [N-({4-[(3-chloro-2-methylbenzene)sulfonyl]phenyl}methyl)-1H-pyrazolo[3,4-b]pyridine-5-carboxamide] were, in that order, 36.9 nM and 16.1 nM.
Turning to `COc1ccc(S(=O)(=O)c2ccc(CNC(=O)c3cc4ccncc4o3)cc2)cc1Cl` [N-({4-[(3-chloro-4-methoxybenzene)sulfonyl]phenyl}methyl)furo[2,3-c]pyridine-2-carboxamide], the IC50 on NAMPT worked out at 7.3 nM; in the assay on A2780 cells (SRB), 1.8 nM.
The corresponding values for `COc1ccc(S(=O)(=O)c2ccc(CNC(=O)c3cc4ccncc4s3)cc2)cc1Cl` [N-({4-[(3-chloro-4-methoxybenzene)sulfonyl]phenyl}methyl)thieno[2,3-c]pyridine-2-carboxamide] are 5 nM and 1.6 nM.
As for `CCCOc1ccc(S(=O)(=O)c2ccc(CNC(=O)c3cnc4[nH]ncc4c3)cc2)cc1Cl` [N-({4-[(3-chloro-4-propoxybenzene)sulfonyl]phenyl}methyl)-1H-pyrazolo[3,4-b]pyridine-5-carboxamide], the IC50 at NAMPT amounted to 7.9 nM; with A2780 cells (SRB), 9.58 nM.
For `COc1cc(Cl)cc(S(=O)(=O)c2ccc(CNC(=O)c3cc4cnccc4[nH]3)cc2)c1` [N-({4-[(3-chloro-5-methoxybenzene)sulfonyl]phenyl}methyl)-1H-pyrrolo[3,2-c]pyridine-2-carboxamide], the IC50 on NAMPT stood at 17 nM; with A2780 cells (SRB), 2.5 nM.
Take `Cc1cc(Cl)cc(S(=O)(=O)c2ccc(CNC(=O)c3cc4ccncc4s3)cc2)c1` [N-({4-[(3-chloro-5-methylbenzene)sulfonyl]phenyl}methyl)thieno[2,3-c]pyridine-2-carboxamide]: the IC50 on NAMPT turned out to be 4.5 nM; with A2780 cells (SRB) it was 1.6 nM.
The corresponding values for `O=C(NCc1ccc(S(=O)(=O)c2cccc(Cl)c2)cc1)c1cnc2[nH]ncc2c1` [N-({4-[(3-chlorobenzene)sulfonyl]phenyl}methyl)-1H-pyrazolo[3,4-b]pyridine-5-carboxamide] are 7 nM and 6 nM.
The corresponding values for `O=C(NCc1ccc(S(=O)(=O)c2cccc(Cl)c2)cc1)c1ccc2nccn2c1` [N-({4-[(3-chlorobenzene)sulfonyl]phenyl}methyl)imidazo[1,2-a]pyridine-6-carboxamide] are 9.08 nM and 3.07 nM.
In the case of `O=C(NCc1ccc(S(=O)(=O)c2cccc(Cl)c2)cc1)c1cc2ccncc2s1` [N-({4-[(3-chlorobenzene)sulfonyl]phenyl}methyl)thieno[2,3-c]pyridine-2-carboxamide], the IC50 on NAMPT amounted to 5 nM; with A2780 cells (SRB assay) it was 3 nM.
As to `N#Cc1cccc(S(=O)(=O)c2ccc(CNC(=O)c3cnc4[nH]ncc4c3)cc2)c1` [N-({4-[(3-cyanobenzene)sulfonyl]phenyl}methyl)-1H-pyrazolo[3,4-b]pyridine-5-carboxamide], the figures for the 50% inhibitory concentration (IC50) at NAMPT and in the assay with A2780 cells (SRB) were 18.5 nM and 9.54 nM, respectively.
